Holding throughout (format): cell-based, Human
One experiment relates to CAL-62. Nature of the experiment: CCK-8 tumor cell proliferation, CAL-62. As to conditions: Homo sapiens; Table 18, FAK inhibitor based; CAL-62; read-out: IC50 inhibiting proliferation of tumor cells, CAL-62. The procedure: (§1) The tumor cells used herein were cultured in a cell culture medium listed in table 4 at 37° C. in an incubator with 5% CO2. Prior to experimentation, all cells used were correctly identified by STR profiling, and tested negative for mycoplasma through routine screenings.
(§2) IC50 values of the compounds of the present disclosure (including the compounds in Tables 1 and 3, and compounds of examples) were measured using the Meilun Cell Counting Kit-8 kit from Dalian Meilun Biotech Co., Ltd. Assay details are as follows: tumor cells were seeded in a 96-well plate at a density listed in Table 5. After 24 h, 100 μL of the inoculated cells were treated with 0.5 μL of the compounds of the present disclosure (including the compounds in Tables 1 and 3, and compounds of examples) at 10 different successively decreasing concentrations (starting at the highest concentration of 10 μM; 5-fold serial dilutions). After the cells were treated with the compounds of the present disclosure for a period of time, the cell viability detection reagent was added to the culture medium for cell viability assessment according to the instructions provided with the CCK-8 kit. […] The growth inhibition of the compounds of the present disclosure on cells was plotted by Prism Graphpad software, and the IC50 values of the compounds of the present disclosure were calculated therefrom.

A further experiment relates to SR. Nature of the experiment: CCK-8 tumor cell proliferation, SR. As to conditions: for IC50: Homo sapiens, SR, read-out: IC50 inhibiting proliferation of tumor cells, SR; for IC50 for inhibiting the proliferation of tumor cells, SR: Table 14, designed based on CDK4/6 inhibitors, 72 h. The procedure: as §1, §2
The test system of another experiment is MDA-MB-231. Nature of the experiment: CCK-8 tumor cell proliferation, MDA-MB-231. As to conditions: Homo sapiens, MDA-MB-231, read-out: IC50 inhibiting proliferation of tumor cells, MDA-MB-231. Here is the method:
as §1, §2

Another experiment concerns PC-9. Nature of the experiment: CCK-8 tumor cell proliferation, PC-9. As to conditions: for IC50 for inhibiting the proliferation of tumor cells, PC-9: Table 11, designed based on EGFR inhibitors, 96 h. Here is the method:
The tumor cells used herein were cultured in a cell culture medium listed in table 4 at 37° C. in an incubator with 5% CO2.
as §2, with “After” for “IC50 values of the compounds of the present disclosure (including the compounds in Tables 1 and 3, and compounds of examples) were measured using the Meilun Cell Counting Kit-8 kit from Dalian Meilun Biotech Co., Ltd. Assay details are as follows: tumor cells were seeded in a 96-well plate at a density listed in Table 5. After”

Another experiment relates to SW620. Nature of the experiment: CCK-8 tumor cell proliferation, SW620. As to conditions: Table 14, designed based on CDK4/6 inhibitors, 96 h. The procedure:
as §1, §2

The test system of a further experiment is CCRF-CEM. Nature of the experiment: CCK-8 tumor cell proliferation, CCRF-CEM. Set-up: IC50 for inhibiting the proliferation of tumor cells, CCRF-CEM: scale not given here. As to conditions: 96 h. Here is the method: as §1, §2
The subject of another experiment is Mino. Nature of the experiment: CCK-8 tumor cell proliferation, Mino. As to conditions: Table 13, designed based on BCR-ABL inhibitors; 72 h. The procedure: as §1, §2

Read-outs that look alike come from different tables or passages of the source. Some results are limits rather than exact numbers.

Regarding `CNC(=O)c1ccccc1Nc1cc(Nc2ccc(N3CCN(Cc4cccc5c4CN(C4CCC(=O)NC4=O)C5=O)CC3)cc2OC)ncc1C(F)(F)F` (stereo not shown) [GT-03718, 2-((2-((4-(4-((2-(2,6-dioxopiperidin-3-yl)-1-oxoisoindolin-4-yl)methyl)piperazin-1-yl)-2-methoxyphenyl)amino)-5-(trifluoromethyl)pyridin-4-yl)amino)-N-methylbenzamide], the IC50 in the experiment on CAL-62 lay within 100 to 500 nM; in the experiment with SR (Table 18, FAK inhibitor based), 100 to 500 nM; with MDA-MB-231 (Table 18, FAK inhibitor based) it was 1000 to 5000 nM.
For the compound `Cc1cc(Nc2ncc(Cl)c(Nc3ccccc3S(=O)(=O)C(C)C)n2)c(OC(C)C)cc1N1CCN(Cc2ccc3c(c2)CN(C2CCC(=O)NC2=O)C3=O)CC1` (stereo not shown) [GT-03529, 3-(5-((4-(4-((5-chloro-4-((2-(isopropylsulfonyl)phenyl)amino)pyrimidin-2-yl)amino)-5-isopropoxy-2-methylphenyl)piperazin-1-yl)methyl)-1-oxoisoindolin-2-yl)piperidine-2,6-dione], the IC50 is under 50 nM with SR (Table 15, ALK inhibitor based); 100 to 500 nM with MDA-MB-231 (Table 15, ALK inhibitor based); 100 to 500 nM in the experiment with PC-9 (Homo sapiens, Table 15, ALK inhibitor based, PC-9, read-out: IC50 inhibiting proliferation of tumor cells, PC-9).
For `CNC(=O)c1ccccc1Nc1cc(Nc2ccc(N3CCC(N(C)Cc4cc(F)c5c(c4)CN(C4CCC(=O)NC4=O)C5=O)CC3)cc2OC)ncc1C(F)(F)F` (stereo not shown) [GT-03730, 2-((2-((4-(4-(((2-(2,6-dioxopiperidin-3-yl)-7-fluoro-1-oxoisoindolin-5-yl)methyl)(methyl)amino)piperidin-1-yl)-2-methoxyphenyl)amino)-5-(trifluoromethyl)pyridin-4-yl)amino)-N-methylbenzamide], the IC50 in the experiment with CAL-62 is under 50 nM; in the experiment with SR (Table 18, FAK inhibitor based), under 50 nM; in the experiment on MDA-MB-231 (Table 18, FAK inhibitor based), 50 to 100 nM.
On to `CN(C)C(=O)c1cc2cnc(Nc3ccc(N4CCNCC4)cn3)nc2n1C1CCCC1` [Ribociclib, reference compound], for which the IC50 in the experiment on SW620 (Homo sapiens, SW-620, read-out: IC50 for inhibiting the proliferation of tumor cells, SW620) is over 10000 nM.
For the compound `CN(Cc1ccc2c(c1)CN(C1CCC(=O)NC1=O)C2=O)C1CCN(c2ccc(Nc3ncc4nc(Nc5ccccc5)n(C5CCCC5)c4n3)cc2)CC1` (stereo not shown) [GT-03685, 3-(5-(((1-(4-((9-cyclopentyl-8-(phenylamino)-9H-purin-2-yl)amino)phenyl)piperidin-4-yl)(methyl)amino)methyl)-1-oxoisoindolin-2-yl)piperidine-2,6-dione], the “IC50 for inhibiting the proliferation of tumor cells, CCRF-CEM” value in the experiment on CCRF-CEM (Table 11, designed based on EGFR inhibitors) is “A+”. Also, the “IC50 for inhibiting the proliferation of tumor cells, PC-9” value with PC-9 is on record as “A+”.
For the compound `CNC(=O)c1ccccc1Nc1cc(Nc2ccc(N3CCC(N(C)Cc4cc5c(cc4F)C(=O)N(C4CCC(=O)NC4=O)C5)CC3)cc2OC)ncc1C(F)(F)F` (stereo not shown) [GT-03729, 2-((2-((4-(4-(((2-(2,6-dioxopiperidin-3-yl)-6-fluoro-1-oxoisoindolin-5-yl)methyl)(methyl)amino)piperidin-1-yl)-2-methoxyphenyl)amino)-5-(trifluoromethyl)pyridin-4-yl)amino)-N-methylbenzamide], the IC50 in the experiment with CAL-62 was 50 to 100 nM; with SR (Table 18, FAK inhibitor based) it was under 50 nM; in the experiment on MDA-MB-231 (Table 18, FAK inhibitor based), 50 to 100 nM.
Consider `Cc1nc2c(F)cc(-c3nc(Nc4ccc(N5CCN(Cc6ccc7c(c6)CN(C6CCC(=O)NC6=O)C7=O)CC5)cn4)ncc3F)cc2n1C(C)C` (stereo not shown) [GT-03688, 3-(5-((4-(6-((5-fluoro-4-(4-fluoro-1-isopropyl-2-methyl-1H-benzo[d]imidazol-6-yl)pyrimidin-2-yl)amino)pyridin-3-yl)piperazin-1-yl)methyl)-1-oxoisoindolin-2-yl)piperidine-2,6-dione], for which the “IC50 for inhibiting the proliferation of tumor cells, SR” value in the experiment on SR is given as “A+”.
With `Cc1nc(Nc2ncc(C(=O)Nc3c(C)cccc3Cl)s2)cc(N2CCC(N3CCN(Cc4ccc5c(c4)CN(C4CCC(=O)NC4=O)C5=O)CC3)CC2)n1` (stereo not shown) [GT-03476, N-(2-chloro-6-methylphenyl)-2-((6-(4-(4-((2-(2,6-dioxopiperidin-3-yl)-1-oxoisoindolin-5-yl)methyl)piperazin-1-yl)piperidin-1-yl)-2-methylpyrimidin-4-yl)amino)thiazole-5-carboxamide], the “IC50 for inhibiting the proliferation of tumor cells, Mino” value in the experiment on Mino is given as “A+”.
As to `Cc1cnc(Nc2ccc(N3CCC(N4CCN(Cc5ccc6c(c5)CN(C5CCC(=O)NC5=O)C6=O)CC4)CC3)cc2)nc1Nc1cccc(S(=O)(=O)NC(C)(C)C)c1` (stereo not shown) [GT-03709, N-(tert-butyl)-3-((2-((4-(4-(4-((2-(2,6-dioxopiperidin-3-yl)-1-oxoisoindolin-5-yl)methyl)piperazin-1-yl)piperidin-1-yl)phenyl)amino)-5-methylpyrimidin-4-yl)amino)benzenesulfonamide], the IC50 with MDA-MB-231 (Table 18, FAK inhibitor based) lay in the range of 1000 to 5000 nM.
Take `CNC(=O)c1ccccc1Nc1cc(Nc2ccc(N3CCC(N(C)Cc4cccc5c4CN(C4CCC(=O)NC4=O)C5=O)CC3)cc2OC)ncc1C(F)(F)F` (stereo not shown) [GT-03731, 2-((2-((4-(4-(((2-(2,6-dioxopiperidin-3-yl)-1-oxoisoindolin-4-yl)methyl)(methyl)amino)piperidin-1-yl)-2-methoxyphenyl)amino)-5-(trifluoromethyl)pyridin-4-yl)amino)-N-methylbenzamide]: the IC50 with CAL-62 is 500 to 1000 nM; with SR (Table 18, FAK inhibitor based), 50 to 100 nM; in the experiment with MDA-MB-231 (Table 18, FAK inhibitor based), 1000 to 5000 nM.
As to `CN(Cc1ccc2c(c1)CN(C1CCC(=O)NC1=O)C2=O)C1CCN(c2ccc(Nc3ncc(C(F)(F)F)c(NCc4cccc(N(C)S(C)(=O)=O)c4)n3)cc2)CC1` (stereo not shown) [GT-03677, N-(3-(((2-((4-(4-(((2-(2,6-dioxopiperidin-3-yl)-1-oxoisoindolin-5-yl)methyl)(methyl)amino)piperidin-1-yl)phenyl)amino)-5-(trifluoromethyl)pyrimidin-4-yl)amino)methyl)phenyl)-N-methylmethanesulfonamide], the IC50 with MDA-MB-231 (Table 18, FAK inhibitor based) is under 50 nM.
Consider `O=C1CCC(N2Cc3cc(CN4CCN(C5CCN(c6ccc(Nc7ncc8nc(Nc9ccccc9)n(C9CCCC9)c8n7)cc6)CC5)CC4)ccc3C2=O)C(=O)N1` (stereo not shown) [GT-03808, 3-(5-((4-(1-(4-((9-cyclopentyl-8-(phenylamino)-9H-purin-2-yl)amino)phenyl)piperidin-4-yl)piperazin-1-yl)methyl)-1-oxoisoindolin-2-yl)piperidine-2,6-dione], for which the “IC50 for inhibiting the proliferation of tumor cells, PC-9” value in the experiment with PC-9 is reported as “A+”.
Still for that read-out and setting: in the case of `O=C1CCC(N2Cc3cc(CN4CCN(c5ccc(Nc6ncc7nc(Nc8ccccc8)n(C8CCCC8)c7n6)cc5)CC4)c(F)cc3C2=O)C(=O)N1` (stereo not shown) [GT-03736, 3-(5-((4-(4-((9-cyclopentyl-8-(phenylamino)-9H-purin-2-yl)amino)phenyl)piperazin-1-yl)methyl)-6-fluoro-1-oxoisoindolin-2-yl)piperidine-2,6-dione] it was “A+”.
For `Cc1nc2c(F)cc(-c3nc(Nc4ccc(N5CCC(N6CCN(Cc7ccc8c(c7)CN(C7CCC(=O)NC7=O)C8=O)CC6)CC5)cn4)ncc3F)cc2n1C(C)C` (stereo not shown) [GT-03719, 3-(5-((4-(1-(6-((5-fluoro-4-(4-fluoro-1-isopropyl-2-methyl-1H-benzo[d]imidazol-6-yl)pyrimidin-2-yl)amino)pyridin-3-yl)piperidin-4-yl)piperazin-1-yl)methyl)-1-oxoisoindolin-2-yl)piperidine-2,6-dione], the “IC50 for inhibiting the proliferation of tumor cells, CCRF-CEM” value in the experiment on CCRF-CEM (Table 14, designed based on CDK4/6 inhibitors) is “A+”. In addition, in the experiment on SW620, the “IC50 for inhibiting the proliferation of tumor cells, SW620” value was “A+”. Moreover, the “IC50 for inhibiting the proliferation of tumor cells, SR” value in the experiment on SR is listed as “A+”.
As to `COc1cc(N2CCC(N(C)Cc3ccc4c(c3)C(=O)N(C3CCC(=O)NC3=O)C4=O)CC2)ccc1Nc1ncc(Cl)c(Nc2ccccc2P(C)(C)=O)n1` (stereo not shown) [GT-03602, 5-(((1-(4-((5-chloro-4-((2-(dimethylphosphoryl)phenyl)amino)pyrimidin-2-yl)amino)-3-methoxyphenyl)piperidin-4-yl)(methyl)amino)methyl)-2-(2,6-dioxopiperidin-3-yl)isoindoline-1,3-dione], in the experiment with SR (Table 15, ALK inhibitor based), the IC50 fell in the range of 50 to 100 nM.

Source of the values: patent US20260199323A1, “LIGAND COMPOUNDS FOR E3 UBIQUITIN LIGASE, PROTEIN DEGRADERS DEVELOPED ON BASIS OF LIGAND COMPOUNDS, AND USES THEREOF” (GLUETACS THERAPEUTICS (SHANGHAI) CO., LTD., priority 2021, published 2026).
